1 compound from EP0319986B1, “Anti-plasmin depressant” (NIPPON SHINYAKU COMPANY, LIMITED, priority 1987, dated 1989) can be followed below.

One data set relates to α2-PI. The experiment in a line: α2-PI activity in plasma of Beagle dogs after consecutive intravenous administration (S-2251). The format is in vivo. The following applies: 30 mg/kg intravenous, consecutive 7 days, activity prior to administration = 100%, n=3. How it is done:
Three (3) male Beagle dogs were used for the control group and the administered group, respectively, as animals to be administered.
A test sample (Compound No. 2) was dissolved in a concentration of […] 0.1 ml, using 0.1 M phosphage buffer (pH 7.2). After dissolution, the solution was sterilized by filtration through a sterile filter (pore size, 0.2 µm) and then 0.3 ml of the solution was administered per 1 kg of body weight (30 mg/kg). The administration was made through the right front limb vein for consecutive 7 days. Collected blood was mixed with 3.8% sodium citrate in a ratio of 1 : 9 by volume. By centrifugation at 3000 rpm for 15 minutes, plasma was isolated.
The α2-PI activity was measured as an inhibition activity against decomposition of plasmin with the synthetic chromogenic substrate S-2251. The results of measurement are shown as change in inhibition activity after administration based on 100% of the plasmin inhibition activity prior to administration of the test sample (Table 2). The sample number in each group was 3 samples.
The α2-PI activity was obviously depressed by consecutive administration of the test compound in a dose of 30 mg/kg.

For a further data set, the system named is fibrin clot. The experiment in a line: Lysis by urokinase of 125I-fibrin clots formed from plasma of treated Beagle dogs. The following applies: plasma 4 Days After Administration of 30 mg/kg once a day, 37°C, 12 hours, n=3. In kind it is in vivo. How it is done: A test sample (Compound No. 2) was consecutively administered to Beagle dogs in a dose of 30 mg/kg once a day. Plasma was isolated prior to and 4 days after the administration. The α2-PI activity in plasma was measured and at the same time, fibrin clot was formed in vitro using the plasma. When urokinase as a thrombolytic agent was acted on the fibrin clot, a degree of lysis was compared between plasma prior to the administration and plasma 4 days after the administration.
To 300 µl of the isolated plasma, 40 µl of ^125I-fibrinogen (0.1 mci/ml) was added and 50 µl each of the mixture was dispensed in a test tube. 5 µl each of a solution mixture of 25 U/ml thrombin and 0.5 M calcium chloride was added to each test tube, which was incubated at 37°C for 30 minutes to prepare fibrin clots. Solutions of 15 and 30 U/ml of urokinase in 2% albumin solution and the resulting solution ware charged in each test tube by 1 ml each.
After incubating at 37°C for 12 hours, 25 µl of the supernatant was collected in an RAI tube and ^125I-fibrin decomposition products isolated in the supernatant were measured with a γ-counter. The sample number was 3 in each group.

Data set [1] concerns CPAE (calf pulmonary artery endothelia). The experiment in a line: Thrombolytic test in vitro: CPAE culture supernatant on fibrin plate, lysis circle. The format is cell-based. As to conditions: 5 µl of 0.2 mg/ml compound solution per well of CPAE cells, 72 hours; 5 µl supernatant on fibrin plate with plasminogen, 4 hours; 4 mm or more = thrombolytic ability induced. How it is done:
Thrombolytic activity-inducing ability in the established vascular endothelial cell culture system was examined using CPAE (calf pulmonary artery endothelia).
[…] cells were purchased from Dainippon Pharmaceutical Co., Ltd., Department of Laboratory Products. CPAE cells were subcultured in 10% FCS-Eagle MEM medium charged in a culture flask of 25 cm^2. From the cell suspension fractionated upon subculture, 0.1 ml was transferred into a test tube with a sterilized pipette. Then, the cell suspension was diluted to 10 fold with 0.9 ml of Trypan Blue solution and a cell count was counted with a cell counter. After diluting with 10% FCS-Eagle MEM medium so as to have a cell count of 2 x 10^5 cells/ml, 100 µl each/well, namely, 2 x 10^4 cells/well, of the dilution was dispensed in a 96 well microtiter plate (manufactured by Corning) with a micropipette. The plate was incubated at 37°C in 5% CO2.
The compound used according to the present invention was dissolved in medium in 0.2 mg/ml; the compound that was insoluble in the medium was dissolved in less than 1% of DMSO and the resulting solution was aseptically filtered through a filter; 5 µl of the solution was added to the well with a sterilized micropipette 24 hours after onset of the incubation. After culturing at 37°C for 72 hours in 5% CO2, the collected culture supernatant was provided for measurement.
The measurement was performed as follows. Plasminogen, 5 µl, was charged in a well of fibrin plate (manufactured by Kitazato institute), which was allowed to stand until diffusion was completed. After diffusion, 5 µl of the supernatant was charged and then put in a carbon dioxide gas incubator of 37°C. Four hours after, evaluation was made by formation of a transparent lysis circle by fibrinolysis.
In the case of forming a circle of 4 mm or more due to fibrinolysis, it was judged that thrombolytic ability of CPAE cells was induced.
After the fibrinolytic activity was checked over, the well was fixed with 2.5% of glutaraldehyde in a final concentration. Then, the solution was discarded and the system was washed with PBS. After washing, moisture was removed. After staining with 100 µl of 0.1% crystal violet and allowing stand for 2 to 3 minutes, the system was washed with running water. After an excess of the staining solution was washed out, moisture was removed and the dye bound to the cells was eluted by 100 µl of methanol. Using multiscanning (Titertech), measurements were performed at a wavelength of 580 nm in accordance with the ABS method and the matrix method to confirm that the cells were not injured.

Data set [2] deals with urokinase type plasminogen activator. The experiment in a line: Fibrin autography of CPAE culture solution after SDS-polyacrylamide gel electrophoresis. In kind it is cell-based, calf. The following applies: culture solution of CPAE cells added with compound; lysis at the position of molecular weight of urokinase type plasminogen activator. An excerpt:
It has been clarified that the compounds used according to the present invention are capable of inducing fibrinolytic activity in CPAE cells. In order to verify by what substance in addition to the α2-PI lowering activity, this fibrinolytic activity is induced, analysis was made on the culture solution added with Compound No. 2 out of the compounds used according to the present invention, by means of fibrin autography.
By SDS-polyacrylamide gel using 10% gel, this culture solution and t-PA (tissue plasminogen activator) and urokinase were subjected to electrophoresis. After the electrophoresis, the gel was treated with 2.5% Triton X-100, which was inoculated on agar plate added with fibrinogen, thrombin and plasminogen. A place of fibrin which caused lysis was confirmed in an incubator of 37°C in 5% CO2.

The next data set in a line: in vivo. The following applies: mouse. How it is done: Four (4) ddY strain male mice of 6 week age were used for each group of the test sample.
In intravenous administration, each sample was dissolved in 0.9% physiological saline and the solution was administered through the tail vein. In intraperitoneal administration, each sample was suspended in 0.5% CMC-physiological saline and 0.1 ml of the suspension per […] of mouse body weight was intraperitoneally administered. In oral administration, each sample was suspended in 0.5% CMC-physiological saline and 0.2 ml of the suspension per […] administered.
Observation was made immediately after the administration. After observation for 1 week after the administration, the mice was sacrificed with chloroform and subjected to autopsy.

In the case of `CN1C[C@H](O)[C@@H](O)[C@H](O)[C@H]1CO` [Compound No. 2, N-methylmoranoline], the “α2-PI activity (%)” value is reported as 95% in the data set on α2-PI (Day 1); 83% with α2-PI (Day 2); 84% in the data set on α2-PI (Day 3); 76% in the data set on α2-PI (Day 4); 75% in the data set with α2-PI (Day 5); 86% with α2-PI (Day 6). Further, the “α2-PI activity (%)” value in the data set with α2-PI (Day 7) turned out to be 89%. Moreover, the “Rate of Lysis of Fibrin Clot (%)” value in the data set with fibrin clot (Urokinase Activity 0 U) was 21.5%; in the data set with fibrin clot (Urokinase Activity 15 U), 63.8%; in the data set with fibrin clot (Urokinase Activity 30 U) it was 93.7%. For the same compound, the “Diameter (mm) of the circle due to fibrinolysis” value in data set [1] is on record as 7.9 mm. The “Induction of urokinase type plasminogen activator in CPAE (fibrin autography)” value in data set [2] is “strongly induced production of urokinase type plasminogen activator”. Also, the LD50 at 168 h in the data set “in vivo” (ip) is 10000 mg/kg; in “in vivo” (iv) it was 5090 mg/kg; in the data set “in vivo” (po), 10000 mg/kg.

The term LD50 denotes the dose expected to kill half of the subjects tested. A lower LD50 goes with greater toxicity.
